Measurements: patent US8563738B2, “Ligands for copper-catalyzed azide-alkyne cycloaddition reactions” (The Scripps Research Institute, priority 2007, dated 2013)
Entries after “also recorded” stand apart in the source; their conditions may differ.

How the values were obtained:
[1] = Second-order rate constants of CuAAC reaction by LC-MS of quenched aliquots; conditions: 4:1 DMSO:buffer, Tris buffer over a standard range of concentrations
[2] = Ligand screening by reaction calorimetry (peak reaction power); set-up: key to calorimetry ligand category: reactions that failed to produce a signal in the calorimeter were classified as identifying “inactive” ligands; moderate: give observable, but not very strong, calorimetry signals; conditions: 65° C.
Description: Reaction calorimetry was used to evaluate the relative merits of various ligands under practical conditions of organic synthesis, e.g., involving high concentrations of azide and alkyne reagents and low loadings of catalyst. After correction for instrumental heat transfer parameters, thermograms provide a direct real-time measure of reaction rate (power output); integration gives the overall time-vs.-completion curve. […] All such measurements were made in the same 4:1 DMSO:aqueous solvent as before, but at 65° C. rather than room temperature, in order to keep the product triazole in solution at the higher concentrations used.
Calorimetry was performed in an Omnical INSIGHT® 10-channel reaction calorimeter using 40 mL glass vials. In a typical run all the reaction components but one were introduced into the vials inside an inert atmosphere glovebox, and vials were sealed with septum caps. The last reaction component to be added was placed in a Hamilton gastight syringe. The vials and syringes were then allowed to equilibrate inside the preheated instrument (65° C.) for 30 minutes. The reaction was started in all vials by depressing all of the syringes simultaneously. Two vials out of ten were charged only with solvent to obtain readings allowing for compensation for the heat of mixing. The thermograms registered in these two channels upon addition of the last component were used to construct the baseline for the other 8 channels.
Since heat is not transferred to the instrument sensor instantaneously, the thermogram registered by the instrument is dependent on the characteristics of the instrument and reaction vessel. Correction for these extraneous factors must be applied to the recorded thermograms to obtain instrument-independent data (Rosner, T.; et al. J. Am. Chem. Soc. 2001, 123, 1848-1855; Liu, J.-S.; et al. Thermochimica Acta 1994, 236, 113-122). The appropriate dynamic correction function is built into the instrument operating software. Use of vendor supplied software produces the same result as manual correction.
By the same token, catalysts such as Cu.1 that give observable, but not very strong, calorimetry signals cannot be fully analyzed by converting thermograms to completion curves, because a significant amount of the total energy output is lost below the detection threshold of the instrument. TBTA (1) falls into this category, classified as “moderate” ligands. […] However, peak power values (i.e., maximum reaction rate) provided a reproducible relative measure of relative catalytic efficiency.
Ligands were screened under the following conditions: 250 mM benzyl azide, 454 mM phenylacetylene, 2 mM CuSO4, 4 mM ligand, 25 mM sodium ascorbate. Phenylacetylene was the last component added. Initial screening was performed with at least two independent trials for each ligand. Candidates showing promising activity were then examined with at least three independent trials to obtain reliable estimations of experimental error.

Compound: c1ccc(Cn2cc(CN(Cc3cn(Cc4ccccc4)nn3)Cc3cn(Cc4ccccc4)nn3)nn2)cc1 [TBTA (1), tris((1-benzyl-1H-1,2,3-triazol-4-yl)methyl)amine, reference compound]
- effect of Tris buffer on rate [1]: slowed significantly
- calorimetry ligand category ([2]; 250 mM benzyl azide, 454 mM phenylacetylene, 2 mM CuSO4, 4 mM ligand, 25 mM sodium ascorbate): moderate
- relative catalytic activity by calorimetry ([2]; high reactant concentrations, 1% Cu, 4:1 DMSO:aqueous): sluggish catalyst compared to many of the others tested; also recorded: lower half of the ligands tested
